Reference: publication PMC11882969 (Nature Communications, 2025)
Values joined by “and” are separate entries in the source; they are usually repeats but may differ in a detail not shown here. Equal values may be shown once.

How the values were obtained:
hCB1 [1] = target: T1, hCB1 (Homo sapiens, UniProt P21554); assay: Lance Ultra cAMP accumulation assay, CHO cells; format: cell-based; set-up: expressed in transfected cells;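 further: human CB1R stably expressed in CHO cells, ligands co-incubated with forskolin at room temperature, read-out is lowering of forskolin-stimulated cAMP accumulation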
hCB1 [2] = target: T1, hCB1; assay: bioSensAll ebBRET signaling profiling, hCB1; format: cell-based; set-up: host or cells: HEK293SL cells, transient PEI transfection; details: for Gi1 hCB1 response: Gi1 biosensor; for Gi1 hCB1 / GoB hCB1: single replicate values, FigS6a; for EC50: read-out: EC50 [95% CI]; for Emax: normalized to CP-55,940
CB1 (rCB1) = CB1 (rCB1) (Rattus norvegicus, UniProt P20272); assay: Radioligand competition binding, [3H]-CP-55,940, rat brain membranes
CB1 (rCB1), sequence (P20272 whole entry): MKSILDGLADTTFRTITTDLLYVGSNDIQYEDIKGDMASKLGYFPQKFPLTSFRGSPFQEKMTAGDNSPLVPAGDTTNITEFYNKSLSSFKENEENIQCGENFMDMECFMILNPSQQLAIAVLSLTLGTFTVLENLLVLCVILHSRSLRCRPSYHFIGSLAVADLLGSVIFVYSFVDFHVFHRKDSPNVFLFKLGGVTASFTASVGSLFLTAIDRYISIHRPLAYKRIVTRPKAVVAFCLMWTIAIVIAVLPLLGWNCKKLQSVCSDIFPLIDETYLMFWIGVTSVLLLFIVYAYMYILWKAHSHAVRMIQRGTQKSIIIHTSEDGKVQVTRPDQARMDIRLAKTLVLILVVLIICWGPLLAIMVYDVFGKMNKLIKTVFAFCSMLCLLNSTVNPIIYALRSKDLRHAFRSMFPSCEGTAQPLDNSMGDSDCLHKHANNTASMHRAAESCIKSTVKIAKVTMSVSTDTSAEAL

T1 sequence (P21554 whole entry): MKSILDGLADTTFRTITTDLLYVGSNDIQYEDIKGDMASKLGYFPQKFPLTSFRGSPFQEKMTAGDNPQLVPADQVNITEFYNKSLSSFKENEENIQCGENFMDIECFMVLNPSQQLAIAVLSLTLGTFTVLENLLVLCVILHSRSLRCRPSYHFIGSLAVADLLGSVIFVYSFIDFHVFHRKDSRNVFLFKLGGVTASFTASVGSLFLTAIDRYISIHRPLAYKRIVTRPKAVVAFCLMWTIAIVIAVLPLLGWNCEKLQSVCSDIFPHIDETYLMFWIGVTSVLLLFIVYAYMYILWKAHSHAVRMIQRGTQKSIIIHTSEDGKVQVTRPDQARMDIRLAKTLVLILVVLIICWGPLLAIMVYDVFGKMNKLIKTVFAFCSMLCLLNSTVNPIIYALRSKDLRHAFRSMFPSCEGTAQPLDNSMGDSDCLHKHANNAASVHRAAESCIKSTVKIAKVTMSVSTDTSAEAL

## COC(=O)[C@](C)(NC(=O)c1cc(C)n(-c2cccc(C(F)(F)F)c2)n1)c1cccs1 [‘8690]
hCB1 [1]
  EC50: 473 nM
  Lance Ultra cAMP pEC50: 6.3 [5.8 – 7.0]
hCB1 [1]; CHO
  Emax: 53%
hCB1 [2]; Log [Compound] (M) -4.63927
  Gi1 hCB1 response: 107.576
  Gi1 hCB1: 89.1198 and 73.8984
  GoB hCB1: 85.86 and 78.0511
hCB1 [2]; Log [Compound] (M) -5.05788
  Gi1 hCB1 response: 100.593
  Gi1 hCB1: 89.7364 and 64.618
  GoB hCB1: 82.8568 and 73.8497
hCB1 [2]; Log [Compound] (M) -5.47381
  Gi1 hCB1 response: 88.91
  Gi1 hCB1: 86.2831 and 71.6021
  GoB hCB1: 95.4631 and 77.0615
hCB1 [2]; Log [Compound] (M) -5.89285
  Gi1 hCB1 response: 68.8562
  Gi1 hCB1: 88.8731 and 77.0341
  GoB hCB1: 89.4387 and 75.2907
hCB1 [2]; Log [Compound] (M) -6.31878
  Gi1 hCB1 response: 81.5241
  Gi1 hCB1: 83.354 and 71.8555
  GoB hCB1: 83.9538 and 76.1935
hCB1 [2]; Log [Compound] (M) -6.72585
  Gi1 hCB1 response: 77.4731
  Gi1 hCB1: 79.6848 and 68.7673
  GoB hCB1: 88.3597 and 69.9433
hCB1 [2]; Log [Compound] (M) -7.14267
  Gi1 hCB1 response: 64.4023
  Gi1 hCB1: 72.1769 and 53.833
  GoB hCB1: 73.7932 and 56.1409
hCB1 [2]; Log [Compound] (M) -7.55284
  Gi1 hCB1 response: 52.8535
  Gi1 hCB1: 51.6729 and 43.6499
  GoB hCB1: 61.8702 and 41.6614
hCB1 [2]; Log [Compound] (M) -8
  Gi1 hCB1 response: 17.9832
  Gi1 hCB1: 32.3713 and 22.1909
  GoB hCB1: 32.3776 and 21.4874
hCB1 [2]; Log [Compound] (M) -8.22186
  Gi1 hCB1 response: 31.0987
  Gi1 hCB1: 19.0514 and 17.5665
  GoB hCB1: 16.1566 and 14.2824
hCB1 [2]; Log [Compound] (M) -8.39794
  Gi1 hCB1 response: 14.4917
  Gi1 hCB1: 17.4789 and 12.7996
  GoB hCB1: 19.8252 and 10.1677
hCB1 [2]; Log [Compound] (M) -8.68787
  Gi1 hCB1 response: 15.566
  Gi1 hCB1: 7.998 and 0.7635
  GoB hCB1: 1.86 and 2.6849
hCB1 [2]; Log [Compound] (M) -9.15521
  Gi1 hCB1 response: 3.502
  Gi1 hCB1: 2.91 and 0.2884
  GoB hCB1: 1.788 and -5.44
hCB1 [2]; Log [Compound] (M) -9.61989
  Gi1 hCB1 response: 4.487
  Gi1 hCB1: 1.7386 and -5.445
  GoB hCB1: -0.8737 and -6.308
hCB1 [2]; Log [Compound] (M) -10.0969
  Gi1 hCB1 response: -7.576
  Gi1 hCB1: 1.245 and -4.415
  GoB hCB1: -2.852 and -5.544
hCB1 [2]; Log [Compound] (M) -10.5529
  Gi1 hCB1 response: -10.5308
  Gi1 hCB1: 0.9678 and -3.3699
  GoB hCB1: -2.528 and -5.649
hCB1 [2]; Log [Compound] (M) -11.0177
  Gi1 hCB1 response: -2.272
  Gi1 hCB1: 2.371 and -4.415
  GoB hCB1: -2.294 and -7.871
hCB1 [2]; Log [Compound] (M) -11.4949
  Gi1 hCB1 response: -1.802
  Gi1 hCB1: -0.1731 and -5.27
  GoB hCB1: 0.583 and -6.36
hCB1 [2]; Log [Compound] (M) -11.9208
  Gi1 hCB1 response: -1.466
  Gi1 hCB1: 0.6903 and -3.196
  GoB hCB1: 1.158 and -6.864
hCB1 [2]; Log [Compound] (M) -12.3979
  Gi1 hCB1 response: 8.695
  Gi1 hCB1: 1.692 and -4.146
  GoB hCB1: 3.838 and -6.76
hCB1 [2]; Log [Compound] (M) -12.8861
  Gi1 hCB1 response: 6.367
  Gi1 hCB1: 2.602 and -5.207
  GoB hCB1: -0.1004 and -5.944
hCB1 [2]; Log [Compound] (M) -13, individual replicate values
  Gi1 hCB1 response: -3.951
hCB1 [2]; Log [Compound] (M) -4.22186
  Gi1 hCB1: 95.271 and 72.3781
  GoB hCB1: 82.2993 and 86.8881
hCB1 [2]; Log [Compound] (M) -13
  Gi1 hCB1: 1.677 and 3.693
  GoB hCB1: -0.7478 and -0.8395
hCB1 [2]; Log [Compound] (M) cell empty
  Gi1 hCB1: -2.293
  GoB hCB1: -5.1625
hCB1 [2]; hCB1 Gi1
  pEC50 [95% CI]: 7.72 [7.6 – 7.8]
hCB1 [2]; hCB1 GoB
  pEC50 [95% CI]: 7.8 [7.7 – 7.9]
  EC50: 18 nM
hCB1 [2]; hCB1 Gz
  pEC50 [95% CI]: 7.5 [6.9 – 7.8]
  EC50: 33 nM
hCB1 [2]; read-out: Emax [95% CI], hCB1 Gi1
  Emax: 82%
hCB1 [2]; read-out: Emax [95% CI], hCB1 GoB
  Emax: 83%
hCB1 [2]; read-out: Emax [95% CI], hCB1 Gz
  Emax: 98%
CB1 (rCB1); rCB1
  pKi [95% CI]: 7.1 [6.9 – 7.3]
CB1 (rCB1); read-out: Ki [95% CI], rCB1, [3H]-CP-55,940
  Ki: 90.2 nM
